Target: T1, ΔTM-FlmC (FlmC81-335) (Lactiplantibacillus plantarum, UniProt F9UMI5)
T1 construct: gene lp_1000
Assay: co-purification from E. coli; organic extraction of unfolded protein, TLC and UHPLC-HRMS
Format: binding
Details: lipid acquired from expression host; identity inferred from m/z 775.5789 (+, in-source dehydro form) and 387.2863 (2-), tentative

T1 sequence (F9UMI5 entry or part of it, stated change not applied): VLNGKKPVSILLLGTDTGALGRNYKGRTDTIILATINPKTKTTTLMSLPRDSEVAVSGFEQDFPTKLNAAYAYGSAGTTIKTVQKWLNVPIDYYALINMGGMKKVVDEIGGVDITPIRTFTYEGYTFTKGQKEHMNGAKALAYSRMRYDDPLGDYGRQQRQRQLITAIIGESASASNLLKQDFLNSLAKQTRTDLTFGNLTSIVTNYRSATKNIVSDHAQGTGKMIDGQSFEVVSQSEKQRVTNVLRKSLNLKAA

Structure (SMILES): CC(C)=CCCC(C)=CCCC(C)=CCCC(C)=CCCC(C)=CCCC(C)=CCCC(C)=CCCC(C)=CCCC(C)=CCCC(C)=CCOP(=O)(O)O [decaprenyl phosphate]
- co-purification from E. coli; organic extraction of unfolded protein, TLC and UH: occurrence of a decaprenyl phosphate (dpr-P) ligand tightly bound to the protein was hypothesized
